Test results reported in ChEMBL document CHEMBL1201862, “PubChem BioAssay data set” (2004).
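Where inhibition never reached the appropriate level, the endpoint shown equals the highest concentration tested. Otherwise, values were interpolated linearly from a five-concentration, 48-hour dose response in 96-well plates. Here, GI50 denotes the concentration required for 50% inhibition of growth.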 Activity calls are given as the source filed them. Cut-off read from the data, not from the text of the source: active = GI50 up to about 1.1 µM and inactive = higher.

Legend:
Test in all cases: inhibition of tumour cell growth, NCI panel, 48 h
786-0 = test system: 786-0
A549 = test system: A549
COLO 205 = test system: COLO 205
DLD-1 = test system: DLD-1
HCT-15 = test system: HCT-15
IGROV-1 = test system: IGROV-1
KM12 = test system: KM12
M19-MEL = test system: M19-MEL
OVCAR-3 = test system: OVCAR-3
SNB-19 = test system: SNB-19
U-251 = test system: U-251
UACC-257 = test system: UACC-257
UO-31 = test system: UO-31
RXF 393 = test system: RXF 393
BT-549 = test system: BT-549
DU-145 = test system: DU-145
Hs-578T = test system: Hs-578T
MDA-MB-231 = test system: MDA-MB-231
MDA-MB-435 = test system: MDA-MB-435
MDA-N = test system: MDA-N

SMILES | GI50 (786-0) | GI50 (A549) | GI50 (COLO 205) | GI50 (DLD-1) | GI50 (HCT-15) | GI50 (IGROV-1) | GI50 (KM12) | GI50 (M19-MEL) | GI50 (OVCAR-3) | GI50 (SNB-19) | GI50 (U-251) | GI50 (UACC-257) | GI50 (UO-31) | GI50 (RXF 393) | GI50 (BT-549) | GI50 (DU-145) | GI50 (Hs-578T) | GI50 (MDA-MB-231) | GI50 (MDA-MB-435) | GI50 (MDA-N)
Cc1nc2c(nc1Cl)nc(Oc1ccc(Cl)cc1)c1ccccc12 | 18.6 µM (inactive) | 34.6 µM (inactive) | > 100 µM (inactive) | 49.9 µM (inactive) | > 100 µM | 55.7 µM (inactive) | > 100 µM (inactive) | > 100 µM (inactive) | > 100 µM (inactive) | 82.8 µM (inactive) | 19.5 µM (inactive) | > 100 µM (inactive) | 27 µM (inactive) |  |  |  |  |  |  | 
Cc1nc(N(CCO)CCO)c2sc(=S)n(-c3ccccc3)c2n1 |  | > 100 µM (inactive) | > 100 µM (inactive) | > 100 µM (inactive) |  | > 100 µM (inactive) | > 100 µM (inactive) |  | > 100 µM (inactive) | > 100 µM (inactive) | > 100 µM (inactive) | > 100 µM (inactive) | > 100 µM (inactive) |  |  |  |  |  |  | 
C=C(/C=C/C=C(/CCC=C(C)C)COC(C)=O)[C@@H]1CC[C@]2([C@H](CCCO)/C(=C(/C)C=O)CC[C@]2(C)O)[C@@H]1O |  | 3.27 µM (inactive) | 0.558 µM (active) | 11.9 µM (inactive) | 14.5 µM | 17.2 µM (inactive) | 16.2 µM (inactive) | 15.7 µM (inactive) |  | 16.1 µM (inactive) | 15 µM (inactive) | 17.7 µM (inactive) | 12.7 µM (inactive) | 18.4 µM (inactive) |  |  |  |  |  | 
COC1CC(C)(NC(=O)C(F)(F)F)C2OC(c3ccccc3)OCC2O1 (stereo not given) | > 100 µM (inactive) | > 100 µM (inactive) | > 100 µM (inactive) |  | > 100 µM | > 100 µM (inactive) | > 100 µM (inactive) |  | > 100 µM (inactive) | > 100 µM (inactive) | > 100 µM (inactive) | > 100 µM (inactive) | > 100 µM (inactive) | > 100 µM (inactive) | > 100 µM (inactive) | > 100 µM (inactive) | > 100 µM (inactive) | > 100 µM (inactive) | > 100 µM (inactive) | > 100 µM (inactive)
CC(=O)O[C@H]1CC[C@@]2(C)[C@H](CC[C@@H]3[C@@H]2CC[C@]2(C)[C@@H](c4ccc(=O)oc4)C[C@H]4O[C@]342)C1 |  | 0.213 µM (active) | 3.15 µM (inactive) | 0.354 µM (active) | 1.08 µM | 1.08 µM (active) | 2.36 µM (inactive) | 1.05 µM (active) | 0.338 µM (active) | 1.82 µM (inactive) | 1.02 µM (active) | 1.06 µM (active) | 0.791 µM (active) | 0.147 µM (active) |  |  |  |  |  | 
COc1ccc(NC(=S)c2ccc([N+](=O)[O-])o2)cc1 | 1.97 µM (inactive) | 3.18 µM (inactive) | 0.386 µM (active) |  | 0.895 µM | 1.82 µM (inactive) | 1.6 µM (inactive) |  | 1.19 µM (inactive) | 2.72 µM (inactive) | 0.885 µM (active) | 2.7 µM (inactive) | 2.03 µM (inactive) | 1.99 µM (inactive) | 1.85 µM (inactive) | 3.17 µM (inactive) | 2.33 µM (inactive) | 2.48 µM (inactive) | 2.06 µM (inactive) | 2.29 µM (inactive)
O=S(O)CCCSSSCCCS(=O)O |  |  |  | > 100 µM (inactive) |  |  | > 100 µM (inactive) | > 100 µM (inactive) | > 100 µM (inactive) | > 100 µM (inactive) | > 100 µM (inactive) | > 100 µM (inactive) | > 100 µM (inactive) | > 100 µM (inactive) |  |  |  |  |  | 
O=C1C2C3SC(c4cc5ccccc5cc43)C2C(=O)N1c1ccccc1 (stereo not given) | 50.8 µM (inactive) | > 100 µM (inactive) | > 100 µM (inactive) |  | > 100 µM | > 100 µM (inactive) | > 100 µM (inactive) | > 100 µM (inactive) | > 100 µM (inactive) | 30.7 µM (inactive) | 68.2 µM (inactive) | > 100 µM (inactive) | > 100 µM (inactive) | 28.1 µM (inactive) |  |  |  |  |  | 
CC(=O)NC1=C(C)C(=O)c2c(nc3n2CCC3OC(=O)c2ccccc2)C1=O (stereo not given) | 4.3 µM (inactive) | 1.7 µM (inactive) | 4 µM (inactive) | 1.81 µM (inactive) |  | 2.08 µM (inactive) | 2.61 µM (inactive) | 1.69 µM (inactive) | 0.223 µM (active) | 2.69 µM (inactive) | 1.89 µM (inactive) | 1.54 µM (inactive) | 2.82 µM (inactive) | 3.79 µM (inactive) |  |  |  |  |  | 
CC(C)NC(=O)OCc1nnn2c1CCC2 |  | > 100 µM (inactive) |  | > 100 µM (inactive) | > 100 µM | > 100 µM (inactive) | > 100 µM (inactive) | > 100 µM (inactive) | > 100 µM (inactive) |  | > 100 µM (inactive) | > 100 µM (inactive) | > 100 µM (inactive) | > 100 µM (inactive) |  |  |  |  |  | 
